Laboratory results published in PubChem BioAssay (NCI).
“And” between values parts separate entries of the source, which are not always exact repeats. Identical values can stand only once.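 Briefly, cells in 96-well plates were exposed to five compound concentrations for 48 h, and endpoints were estimated by linear interpolation. Here, GI50 denotes the concentration required for 50% inhibition of growth. TGI is the concentration that stops growth completely.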

How the values were obtained:
Test in all cases: DTP human tumour cell line panel, 48 h
ACHN renal = test system: ACHN renal
HCC-2998 colon = test system: HCC-2998 colon
OVCAR-5 ovarian = test system: OVCAR-5 ovarian
NCI/ADR-RES ovarian = test system: NCI/ADR-RES ovarian
MDA-MB-231 breast = test system: MDA-MB-231 breast
SN12C renal = test system: SN12C renal
SF-539 CNS = test system: SF-539 CNS
SR leukemia = test system: SR leukemia
SK-OV-3 ovarian = test system: SK-OV-3 ovarian
UACC-62 melanoma = test system: UACC-62 melanoma
DU-145 prostate = test system: DU-145 prostate
MDA-MB-435 = test system: MDA-MB-435
CAKI-1 renal = test system: CAKI-1 renal
NCI-H226 lung = test system: NCI-H226 lung
SF-268 CNS = test system: SF-268 CNS
CCRF-CEM leukemia = test system: CCRF-CEM leukemia
HS 578T breast = test system: HS 578T breast
A498 renal = test system: A498 renal
SNB-75 CNS = test system: SNB-75 CNS
OVCAR-8 ovarian = test system: OVCAR-8 ovarian
MOLT-4 leukemia = test system: MOLT-4 leukemia
BT-549 breast = test system: BT-549 breast
HT29 colon = test system: HT29 colon
COLO 205 colon = test system: COLO 205 colon
HOP-92 NSCLC = test system: HOP-92 NSCLC
RPMI-8226 leukemia = test system: RPMI-8226 leukemia
UO-31 renal = test system: UO-31 renal
NCI-H522 lung = test system: NCI-H522 lung
HCT-116 colon = test system: HCT-116 colon
SK-MEL-2 melanoma = test system: SK-MEL-2 melanoma
RXF 393 renal = test system: RXF 393 renal
MALME-3M melanoma = test system: MALME-3M melanoma
OVCAR-4 ovarian = test system: OVCAR-4 ovarian
SF-295 CNS = test system: SF-295 CNS
HCT-15 colon = test system: HCT-15 colon
SW-620 colon = test system: SW-620 colon
MCF7 breast = test system: MCF7 breast
HL-60(TB) leukemia = test system: HL-60(TB) leukemia
HOP-62 NSCLC = test system: HOP-62 NSCLC
IGROV1 ovarian = test system: IGROV1 ovarian
M14 melanoma = test system: M14 melanoma
NCI-H460 lung = test system: NCI-H460 lung
K-562 leukemia = test system: K-562 leukemia
NCI-H23 lung = test system: NCI-H23 lung
A549 NSCLC = test system: A549 NSCLC
PC-3 prostate = test system: PC-3 prostate
786-0 renal = test system: 786-0 renal
U251 CNS = test system: U251 CNS
SK-MEL-28 melanoma = test system: SK-MEL-28 melanoma
SNB-19 CNS = test system: SNB-19 CNS
EKVX NSCLC = test system: EKVX NSCLC

C=CCn1c(C)nc2ccc(Nc3nc(Nc4ccc5nc(C)n(CC=C)c5c4)c4ccccc4n3)cc21
GI50 (ACHN renal): 1.64 µM
TGI (ACHN renal): 3.01 µM
GI50 (HCC-2998 colon): 1.72 µM
TGI (HCC-2998 colon): 3.09 µM
GI50 (OVCAR-5 ovarian): 1.7 µM
TGI (OVCAR-5 ovarian): 3.09 µM
GI50 (NCI/ADR-RES ovarian): 2.22 µM
TGI (NCI/ADR-RES ovarian): 6.07 µM
GI50 (MDA-MB-231 breast): 1.34 µM
TGI (MDA-MB-231 breast): 2.62 µM
GI50 (SN12C renal): 1.62 µM
TGI (SN12C renal): 2.98 µM
GI50 (SF-539 CNS): 1.71 µM
TGI (SF-539 CNS): 3.12 µM
GI50 (SR leukemia): 1.52 µM
TGI (SR leukemia): 3.98 µM
GI50 (SK-OV-3 ovarian): 1.72 µM
TGI (SK-OV-3 ovarian): 3.09 µM
GI50 (UACC-62 melanoma): 1.55 µM
TGI (UACC-62 melanoma): 2.89 µM
GI50 (DU-145 prostate): 1.85 µM
TGI (DU-145 prostate): 3.27 µM

Oc1cc2cccc[n+]2c2cc(Cl)ccc12
GI50 (MDA-MB-435): 14.9 µM
TGI (MDA-MB-435): 28.1 µM
GI50 (CAKI-1 renal): 65.9 µM
GI50 (NCI-H226 lung): 81 µM
GI50 (SF-268 CNS): 56.3 µM
GI50 (CCRF-CEM leukemia): 35.9 µM
GI50 (HS 578T breast): 84.5 µM
GI50 (A498 renal): 18.2 µM
TGI (A498 renal): 32.4 µM
GI50 (HCC-2998 colon): 83.3 µM
GI50 (SNB-75 CNS): 91.5 µM
GI50 (OVCAR-8 ovarian): 92.3 µM
GI50 (MDA-MB-231 breast): 29.2 µM
GI50 (MOLT-4 leukemia): 57.3 µM
GI50 (SN12C renal): 45.2 µM
GI50 (BT-549 breast): 78 µM
GI50 (HT29 colon): 71 µM
GI50 (SR leukemia): 48.4 µM
GI50 (COLO 205 colon): 56.9 µM
GI50 (HOP-92 NSCLC): 5.06 µM
TGI (HOP-92 NSCLC): 9.88 µM
GI50 (RPMI-8226 leukemia): 57 µM
GI50 (UO-31 renal): 57.9 µM
GI50 (NCI-H522 lung): 86.3 µM
GI50 (HCT-116 colon): 60.3 µM

O=c1cc(-c2cccc3ccccc23)[nH]c2ncccc12
TGI (MDA-MB-435): 0.00404 µM
GI50 (SK-MEL-2 melanoma): 0.0136 µM
TGI (SK-MEL-2 melanoma): > 100 µM
TGI (CAKI-1 renal): > 100 µM
GI50 (RXF 393 renal): 11.9 µM
TGI (MALME-3M melanoma): 0.0462 µM
GI50 (ACHN renal): 0.0425 µM
TGI (ACHN renal): > 100 µM
TGI (NCI-H226 lung): > 100 µM
GI50 (OVCAR-4 ovarian): 77.6 µM
TGI (OVCAR-4 ovarian): > 100 µM
TGI (SF-295 CNS): > 100 µM
GI50 (SF-268 CNS): 10.1 µM
TGI (SF-268 CNS): > 100 µM
GI50 (CCRF-CEM leukemia): 0.0201 µM
TGI (CCRF-CEM leukemia): > 100 µM
GI50 (HS 578T breast): 0.0186 µM
TGI (HS 578T breast): > 100 µM
TGI (HCT-15 colon): 10.3 µM
GI50 (HCC-2998 colon): 0.0313 µM
TGI (HCC-2998 colon): 0.424 µM and 1.54 µM
TGI (SW-620 colon): > 100 µM
TGI (OVCAR-5 ovarian): > 100 µM
TGI (MCF7 breast): 4.25 µM
TGI (HL-60(TB) leukemia): 0.0315 µM
GI50 (OVCAR-8 ovarian): 0.0338 µM
TGI (OVCAR-8 ovarian): 0.889 µM and 0.453 µM
GI50 (NCI/ADR-RES ovarian): 0.0173 µM
TGI (NCI/ADR-RES ovarian): > 100 µM
TGI (HOP-62 NSCLC): > 100 µM
GI50 (MDA-MB-231 breast): 0.0479 µM
TGI (MDA-MB-231 breast): > 100 µM
GI50 (MOLT-4 leukemia): 0.0449 µM
TGI (MOLT-4 leukemia): > 100 µM
GI50 (SN12C renal): 0.149 µM
TGI (SN12C renal): > 100 µM
TGI (BT-549 breast): > 100 µM
TGI (HT29 colon): 0.0608 µM
GI50 (SF-539 CNS): 0.0159 µM
TGI (SR leukemia): > 100 µM
GI50 (IGROV1 ovarian): 0.0417 µM
TGI (IGROV1 ovarian): > 100 µM
GI50 (SK-OV-3 ovarian): 0.0147 µM
TGI (COLO 205 colon): 0.0587 µM and 0.136 µM
GI50 (M14 melanoma): 0.0275 µM
TGI (M14 melanoma): > 100 µM
GI50 (HOP-92 NSCLC): 0.773 µM
TGI (HOP-92 NSCLC): 70.1 µM
TGI (RPMI-8226 leukemia): > 100 µM
GI50 (UO-31 renal): 0.0741 µM
TGI (UO-31 renal): > 100 µM
GI50 (NCI-H522 lung): 0.0158 µM
TGI (NCI-H522 lung): 0.0698 µM and 0.0767 µM
GI50 (NCI-H460 lung): 0.0392 µM
TGI (NCI-H460 lung): > 100 µM
TGI (UACC-62 melanoma): > 100 µM
TGI (K-562 leukemia): > 100 µM
TGI (NCI-H23 lung): > 100 µM
GI50 (A549 NSCLC): 0.0216 µM
TGI (A549 NSCLC): > 100 µM
TGI (PC-3 prostate): > 100 µM
TGI (DU-145 prostate): > 100 µM
TGI (786-0 renal): > 100 µM
GI50 (U251 CNS): 0.0103 µM
TGI (U251 CNS): > 100 µM
GI50 (SK-MEL-28 melanoma): 0.0158 µM
TGI (SK-MEL-28 melanoma): > 100 µM
GI50 (SNB-19 CNS): 0.0366 µM
TGI (SNB-19 CNS): > 100 µM
GI50 (EKVX NSCLC): 0.0239 µM
TGI (EKVX NSCLC): > 100 µM
TGI (HCT-116 colon): 21.3 µM
